Tested on: 616215-338-R-J1-PDC complex spheroid viability
Assay: Anticancer human tumor 616215-338-R-J1-PDC patient-derived colon adenocarcinoma cell line growth inhibition [POLQ]
Conditions: for IC50: curve of first compound; for viability, T/C: stronger effect = lower value
Method in brief: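 Patient-derived tumour cells were co-cultured with HUVEC and mesenchymal stem cells as multicellular spheroids at 37 °C. They were treated with POLQ inhibitors (novobiocin, ART-558, RP6685) alone or combined with other agents. Top concentrations were at or near clinical Cmax (otherwise 10 microM; SN-38 at 1 microM), decreasing in half-log steps.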

[1] = second compound 0.0316 µM, first compound 0.0316 µM
[2] = second compound 0.0316 µM, first compound 0.1 µM
[3] = second compound 0.0316 µM, first compound 0.316 µM
[4] = second compound 0.0316 µM, first compound 1 µM
[5] = second compound 0.0316 µM, first compound 3.16 µM
[6] = second compound 0.0316 µM, first compound 10 µM
[7] = second compound 0.1 µM, first compound 0.0316 µM
[8] = second compound 0.1 µM, first compound 0.1 µM
[9] = second compound 0.1 µM, first compound 0.316 µM
[10] = second compound 0.1 µM, first compound 1 µM
[11] = second compound 0.1 µM, first compound 3.16 µM
[12] = second compound 0.1 µM, first compound 10 µM
[13] = second compound 0.316 µM, first compound 0.0316 µM
[14] = second compound 0.316 µM, first compound 0.1 µM
[15] = second compound 0.316 µM, first compound 0.316 µM
[16] = second compound 0.316 µM, first compound 1 µM
[17] = second compound 0.316 µM, first compound 3.16 µM
[18] = second compound 0.316 µM, first compound 10 µM
[19] = second compound 1 µM, first compound 0.0316 µM
[20] = second compound 1 µM, first compound 0.1 µM
[21] = second compound 1 µM, first compound 0.316 µM
[22] = second compound 1 µM, first compound 1 µM
[23] = second compound 1 µM, first compound 3.16 µM
[24] = second compound 1 µM, first compound 10 µM
[25] = second compound 3.16 µM, first compound 0.0316 µM
[26] = second compound 3.16 µM, first compound 0.1 µM
[27] = second compound 3.16 µM, first compound 0.316 µM
[28] = second compound 3.16 µM, first compound 1 µM
[29] = second compound 3.16 µM, first compound 3.16 µM
[30] = second compound 3.16 µM, first compound 10 µM
[31] = second compound 10 µM, first compound 0.0316 µM
[32] = second compound 10 µM, first compound 0.1 µM
[33] = second compound 10 µM, first compound 0.316 µM
[34] = second compound 10 µM, first compound 1 µM
[35] = second compound 10 µM, first compound 3.16 µM
[36] = second compound 10 µM, first compound 10 µM
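Also: spheroids exposed to compounds for one week before readout.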
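For viability, T/C in this document: percent viability relative to DMSO vehicle wells taken as 100%.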

CC1COCCN1c1cc(C2(S(C)(=N)=O)CC2)nc(-c2ccnc3[nH]ccc23)n1 (stereo not drawn) + COC1C(OC(N)=O)C(O)C(Oc2ccc3c(O)c(NC(=O)c4ccc(O)c(CC=C(C)C)c4)c(=O)oc3c2C)OC1(C)C
IC50 (second compound 0.0316 µM): > 10 µM | IC50 (second compound 0.1 µM): > 10 µM | IC50 (second compound 0.316 µM): > 10 µM | IC50 (second compound 1 µM): > 10 µM | IC50 (second compound 3.16 µM): > 10 µM | IC50 (second compound 10 µM): > 10 µM | viability, T/C [1]: 93.8% | viability, T/C [2]: 104% | viability, T/C [3]: 100% | viability, T/C [4]: 98.5% | viability, T/C [5]: 98.5% | viability, T/C [6]: 67.1% | viability, T/C [7]: 98.2% | viability, T/C [8]: 91.7% | viability, T/C [9]: 101% | viability, T/C [10]: 96.6% | viability, T/C [11]: 92.3% | viability, T/C [12]: 73.9% | viability, T/C [13]: 97.7% | viability, T/C [14]: 103% | viability, T/C [15]: 105% | viability, T/C [16]: 95.5% | viability, T/C [17]: 97.2% | viability, T/C [18]: 65.1% | viability, T/C [19]: 99.3% | viability, T/C [20]: 99.1% | viability, T/C [21]: 108% | viability, T/C [22]: 104% | viability, T/C [23]: 94.2% | viability, T/C [24]: 63.9% | viability, T/C [25]: 107% | viability, T/C [26]: 100% | viability, T/C [27]: 108% | viability, T/C [28]: 94% | viability, T/C [29]: 94.5% | viability, T/C [30]: 60.6% | viability, T/C [31]: 96.8% | viability, T/C [32]: 95.3% | viability, T/C [33]: 100% | viability, T/C [34]: 98.6% | viability, T/C [35]: 98.7% | viability, T/C [36]: 61.8%

CNCc1ccc(-c2[nH]c3cc(F)cc4c3c2CCNC4=O)cc1 + COC1C(OC(N)=O)C(O)C(Oc2ccc3c(O)c(NC(=O)c4ccc(O)c(CC=C(C)C)c4)c(=O)oc3c2C)OC1(C)C
IC50 (second compound 0.0316 µM): > 10 µM | IC50 (second compound 0.1 µM): > 10 µM | IC50 (second compound 0.316 µM): > 10 µM | IC50 (second compound 1 µM): > 10 µM | IC50 (second compound 3.16 µM): > 10 µM | IC50 (second compound 10 µM): > 10 µM | viability, T/C [1]: 98.7% | viability, T/C [2]: 99.8% | viability, T/C [3]: 106% | viability, T/C [4]: 111% | viability, T/C [5]: 107% | viability, T/C [6]: 93.3% | viability, T/C [7]: 102% | viability, T/C [8]: 102% | viability, T/C [9]: 98.7% | viability, T/C [10]: 99.5% | viability, T/C [11]: 101% | viability, T/C [12]: 83.9% | viability, T/C [13]: 107% | viability, T/C [14]: 113% | viability, T/C [15]: 115% | viability, T/C [16]: 105% | viability, T/C [17]: 105% | viability, T/C [18]: 83.2% | viability, T/C [19]: 105% | viability, T/C [20]: 106% | viability, T/C [21]: 101% | viability, T/C [22]: 102% | viability, T/C [23]: 109% | viability, T/C [24]: 76.2% | viability, T/C [25]: 106% | viability, T/C [26]: 101% | viability, T/C [27]: 106% | viability, T/C [28]: 109% | viability, T/C [29]: 117% | viability, T/C [30]: 58.9% | viability, T/C [31]: 109% | viability, T/C [32]: 101% | viability, T/C [33]: 97.6% | viability, T/C [34]: 104% | viability, T/C [35]: 105% | viability, T/C [36]: 55%

COc1cccc(OCCCN)c1-c1cc(Nc2cnc(C#N)cn2)n[nH]1 + COC1C(OC(N)=O)C(O)C(Oc2ccc3c(O)c(NC(=O)c4ccc(O)c(CC=C(C)C)c4)c(=O)oc3c2C)OC1(C)C
IC50 (second compound 0.0316 µM): > 1 µM | IC50 (second compound 0.1 µM): > 1 µM | IC50 (second compound 0.316 µM): > 1 µM | IC50 (second compound 1 µM): > 1 µM | IC50 (second compound 3.16 µM): > 1 µM | IC50 (second compound 10 µM): 0.866 µM | viability, T/C (second compound 0.0316 µM, first compound 0.00316 µM): 95.7% | viability, T/C (second compound 0.0316 µM, first compound 0.01 µM): 109% | viability, T/C [1]: 94.8% | viability, T/C [2]: 76.1% | viability, T/C [3]: 69.3% | viability, T/C [4]: 61% | viability, T/C (second compound 0.1 µM, first compound 0.00316 µM): 98.6% | viability, T/C (second compound 0.1 µM, first compound 0.01 µM): 99.3% | viability, T/C [7]: 97.8% | viability, T/C [8]: 78.8% | viability, T/C [9]: 65.1% | viability, T/C [10]: 51.7% | viability, T/C (second compound 0.316 µM, first compound 0.00316 µM): 100% | viability, T/C (second compound 0.316 µM, first compound 0.01 µM): 106% | viability, T/C [13]: 85.7% | viability, T/C [14]: 87.4% | viability, T/C [15]: 68% | viability, T/C [16]: 53.5% | viability, T/C (second compound 1 µM, first compound 0.00316 µM): 103% | viability, T/C (second compound 1 µM, first compound 0.01 µM): 101% | viability, T/C [19]: 89.2% | viability, T/C [20]: 75.3% | viability, T/C [21]: 67.2% | viability, T/C [22]: 54.2% | viability, T/C (second compound 3.16 µM, first compound 0.00316 µM): 98.8% | viability, T/C (second compound 3.16 µM, first compound 0.01 µM): 95.3% | viability, T/C [25]: 86.3% | viability, T/C [26]: 74.2% | viability, T/C [27]: 63.3% | viability, T/C [28]: 55.2% | viability, T/C (second compound 10 µM, first compound 0.00316 µM): 95.7% | viability, T/C (second compound 10 µM, first compound 0.01 µM): 97% | viability, T/C [31]: 88.1% | viability, T/C [32]: 79.8% | viability, T/C [33]: 64.4% | viability, T/C [34]: 47.9%

O=C(c1cc(Cc2n[nH]c(=O)c3ccccc23)ccc1F)N1CCN(C(=O)C2CC2)CC1 + COC1C(OC(N)=O)C(O)C(Oc2ccc3c(O)c(NC(=O)c4ccc(O)c(CC=C(C)C)c4)c(=O)oc3c2C)OC1(C)C
IC50 (second compound 0.0316 µM): > 10 µM | IC50 (second compound 0.1 µM): > 10 µM | IC50 (second compound 0.316 µM): > 10 µM | IC50 (second compound 1 µM): > 10 µM | IC50 (second compound 3.16 µM): > 10 µM | IC50 (second compound 10 µM): > 10 µM | viability, T/C [1]: 103% | viability, T/C [2]: 99.2% | viability, T/C [3]: 107% | viability, T/C [4]: 105% | viability, T/C [5]: 109% | viability, T/C [6]: 87.8% | viability, T/C [7]: 102% | viability, T/C [8]: 89% | viability, T/C [9]: 98.5% | viability, T/C [10]: 99.8% | viability, T/C [11]: 110% | viability, T/C [12]: 85.7% | viability, T/C [13]: 102% | viability, T/C [14]: 113% | viability, T/C [15]: 103% | viability, T/C [16]: 101% | viability, T/C [17]: 109% | viability, T/C [18]: 98.2% | viability, T/C [19]: 107% | viability, T/C [20]: 108% | viability, T/C [21]: 102% | viability, T/C [22]: 101% | viability, T/C [23]: 97% | viability, T/C [24]: 93.4% | viability, T/C [25]: 99.6% | viability, T/C [26]: 95% | viability, T/C [27]: 96.7% | viability, T/C [28]: 94.7% | viability, T/C [29]: 109% | viability, T/C [30]: 88.2% | viability, T/C [31]: 104% | viability, T/C [32]: 94% | viability, T/C [33]: 106% | viability, T/C [34]: 105% | viability, T/C [35]: 95.1% | viability, T/C [36]: 84.5%
